Laboratory results taken from US20160129005A1, “ADENINE DERIVATIVES HAVING IMMUNOMODULATING ANTI-INFLAMMATORY AND ANALGESIC ACTIVITY” (MEDESTEA RESEARCH & PRODUCTION S.p.A., priority 2011, published 2016).

Tests used:
Sprague-Dawley (SD) rats = assay: Renal ischaemia/reperfusion injury; assay type: in vivo, rat
From the text: Ischaemia is an acute pathologic event in which there is reduction in blood supply with resultant injury or dysfunction of the affected tissue. Currently, the obstructed blood vessel is cleared by direct intervention. The resumption of normal circulation after a period of hypoxia causes quite considerable tissue injury, however, with fibrotic results that undermine the functionality of the affected organ. […] We wanted to check whether […] could reduce the injury due to reperfusion and to do so we used a model of renal ischaemia. The model envisages creation of an ischaemic event and then verification of the injury following treatment with […] or with the vehicle.
The experiment was conducted on Sprague-Dawley (SD) rats of 250-300 g divided into three groups. The first group, the […], only underwent an incision, which was kept open for 30 minutes, without ischaemic injury. The other two were pretreated, 30 minutes before undergoing the intervention, with intraperitoneal administration of vehicle (group 2) or of […] (group 3) 10 mg/kg. […]
The kidneys were sectioned for histologic analysis in double-blind conditions. The percentages of the tissue changes observed were counted using a 5-point semiquantitative scale, defined for assessing necrosis and cellular loss: 0=normal kidney; 0.5=<10%; 1=10-25%; 2=25-50%; 3=50-75%; 4=75-100%.

U937 cells = assay: Secretion of pro-inflammatory cytokines by LPS-stimulated U937 cells (ELISA); assay type: cell-based, human; details: drug with LPS (12 hrs) or added after LPS for 2 or 6 hours, FIG. 1
Experimental: The production in vitro of MCP-1 (monocyte chemoattractant protein-1), TNF-α (tumour necrosis factor alpha), IL-6 (interleukin 6) was analysed. These cytokines induce the production of other cytokines that attract leukocytes to the site of inflammation, potentiating the immune response. This amplifies leukocyte “recruitment” at the site of inflammation, promoting “extravasation” of immune cells from the peripheral circulation.
The U937 cells were plated at a density of 250 000 cells/ml and left in quiescence for 24 hours.
The drug was added in fresh medium, simultaneously or after removal of LPS from the culture. The cells were kept in an incubator at 37° C. with supply of CO2 at 5%.
Analysis of the production of growth factors was performed on the cellular supernatants collected, by ELISA assay using commercial kits (Human TNF-α Quantikine ELISA Kit code DTA00C, R&D Systems assay. Human IL-6 Quantikine ELISA Kit code D6050, R&D Systems assay. Human CCL2/MCP-1 Quantikine ELISA Kit code DCP00, R&D Systems assay).

dendritic cells (DCs) = assay: Maturation of dendritic cells (flow cytometry of membrane antigens); assay type: cell-based
Experimental: The effect of […] on the various stages of maturation of the DCs was evaluated. The study was carried out using flow cytometry by analysing the principal membrane antigens characterizing the stage of differentiation and maturation of the DCs.
The DCs were obtained from peripheral whole blood and were plated in a suitable medium (DC medium). The immature DCs (DCi) on day 6 of culture were collected, analysed in the cytofluorimeter and were brought to maturation by stimulation with LPS 10 μg/ml overnight (O.N.). […] 300 μM was added to DC medium during the last 5 hours or simultaneously with maturation of the DCi with LPS (10 μg/ml) overnight. CD1a is a marker of immaturity specific to the DCs, expression of which decreases in mature DCs.
CD80 and CD86 are fundamental co-stimulatory molecules in the process of antigen presentation, and expression of them generally increases in mature DCs compared to immature DCs.

female NZB/NZW F1 mice = assay: Systemic lupus erythematosus model; assay type: in vivo, mouse
Experimental: Systemic lupus erythematosus (SLE) is a chronic autoimmune disease that generally begins with arthritis or arthralgia. Haematuria or proteinuria may be the only renal symptom, however, lupus glomerulonephritis may lead to acute or terminal renal failure. An experimental model of SLE consists of female F1 mice derived from crossing of the NZB strain with NZW. To evaluate the possible effect of […] in SLE, we treated female NZB/NZW F1 mice with 0.25 mg of […] or carrier 5 days a week for six weeks, starting the treatment when the mice had developed anti-DNA antibodies.

mice = assay: Asthma: ovalbumin sensitization and aerosol challenge, BALF; assay type: in vivo, mouse; details: 6 mg/kg intratracheal 30 minutes before OA aerosol; FIG. 38
Experimental: Sensitization of mice with ovalbumin (OA) adsorbed on aluminium hydroxide, administered intraperitoneally on day 0 and day 7, can cause a similar asthmatic manifestation when the mouse is subsequently (days 19-21) challenged with OA aerosol. The mice were anaesthetized 30 minutes before the OA aerosol and the treated group received an intratracheal injection of […] 6 mg/kg.
Twenty-four hours after the last administration of OA, a bronchoalveolar lavage was carried out with 3×1 ml of PBS free from calcium and magnesium ions.

Swiss CD1 mice = assay: CFA thermal hyperalgesia, synergy with opioids
Experimental: We compared the activity of […] with that of the opioids to study its analgesic effect.
Mice of the Swiss CD1 type were given a single intraplantar injection of 30 microlitres of complete Freund adjuvant (CFA) in the right plantar pad. Intraperitoneal injection of […] and/or of morphine (morphine chlorhydrate, Molteni) was administered 24 hours after injection of CFA according to the following scheme:
1. […] 7.5 mg/kg; 2. […] 10 mg/kg; 3. […] 200 mg/kg; 4. […] 50 mg/kg; 5. Morphine 0.4 mg/kg; 6. Morphine 2.5 mg/kg; 7. Morphine 1 mg/kg; 8. Morphine 0.4 mg/kg; 9. Morphine 1 mg/kg+[…] 10 mg/kg; 10. Morphine 0.4 mg/kg+[…] 10 mg/kg; 11. Morphine 1 mg/kg+[…] 10 mg/kg; 12. Morphine 0.4 mg/kg+[…] 10 mg/kg; 13. Morphine 4 mg/kg.
Groups 9-11 and 10-12 have the same doses respectively; they were repeated to confirm the results.
Thermal hyperalgesia was assessed using the Ugo Basile apparatus (Comerio, Italy).
The test was carried out before (baseline values) injection of CFA, after injection of CFA and 0.5, 1, 2, 3, 6 and 12 hours after injecting the drug in the inflamed pad.

[1] = 60 days from the end of treatment

In the case of C=C(C=O)OC(C=O)n1cnc2c(N)ncnc21 (stereo not drawn) [2-[1-(6-aminopurin-9-yl)-2-oxoethoxy]prop-2-enal], the “renal injury (histological damage score and organ functionality)” value (Sprague-Dawley (SD) rats; 10 mg/kg i.p., FIG. 6) is reported as “largely prevents renal injury”, the plasma creatinine levels (Sprague-Dawley (SD) rats; group 3, 10 mg/kg i.p. 30 minutes before ischaemia, 24 hours, group 1 = sham, FIG. 5) is reported as “values much closer to those of group 1” and the “cellular secretion of IL-6” value (U937 cells) is reported as “reduces the cellular secretion”. For the same compound, the “cellular secretion of MCP-1” value (U937 cells) was “reduces the cellular secretion”, the “cellular secretion of TNF-α” value (U937 cells) was “reduces the cellular secretion” and the “modulation of CD40 (negative regulation)” value (dendritic cells (DCs); 300 μM) was “less marked”. The “modulation of CD54 (negative regulation)” value (dendritic cells (DCs); 300 μM) was “less marked”, the “class I histocompatibility antigen” value (dendritic cells (DCs); 300 μM, both overnight and at 5 hours) was “decreases” and the CD80 expression (dendritic cells (DCs); DCs matured with LPS, 300 μM) was “no effects on CD80”. For the same compound, the CD86 expression (dendritic cells (DCs); DCs matured with LPS, 300 μM) was “negative regulation of CD86”, the “CD1a expression (marker of immaturity)” value (dendritic cells (DCs); DCs matured with LPS, IMMUFLAM 300 μM at 5 hrs, vs LPS alone) was “shown to increase” and the proteinuria (female NZB/NZW F1 mice; 0.25 mg 5 days a week for six weeks, two months following the treatment) was “did not appear”. The “deposition of immune complexes (histopathological score)” value (female NZB/NZW F1 mice; [1]) was “significant decrease”, the “glomerular proliferation (histopathological score)” value (female NZB/NZW F1 mice; [1]) was “significant decrease” and the “lymphocyte infiltration (histopathological score)” value (female NZB/NZW F1 mice; [1]) was “significant decrease”. For the same compound, the “immune cells and mediators of inflammation in BALF” value (mice) was “Significantly lower levels of immune cells and mediators of inflammation”, the “values of nociception (thermal hyperalgesia)” value (Swiss CD1 mice; IMMUFLAM alone i.p., all the doses tested) was “brings back the values of nociception to the baseline values” and the “obsessive-compulsive disorders (behaviour)” value (Swiss CD1 mice; mice treated with IMMUFLAM alone) was “did not display any behaviour of this kind”.
